From BindingDB's records for doi:10.1124/jpet.301.1.37 (National Institutes of Health, 2002)
Several values for one entry are separate records, joined by “and”; a condition that tells them apart may be missing. Equal entries are not always repeated.

Key:
VIP peptides [1] = biological target: T1, VIP peptides (Homo sapiens, UniProt P01282)
T1 sequence (P01282 whole entry): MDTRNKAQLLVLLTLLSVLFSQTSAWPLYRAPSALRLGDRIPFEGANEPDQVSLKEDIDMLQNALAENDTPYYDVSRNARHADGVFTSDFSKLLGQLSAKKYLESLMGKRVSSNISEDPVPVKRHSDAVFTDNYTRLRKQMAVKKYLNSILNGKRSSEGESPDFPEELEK

VIP peptides [2] = biological target: T2, VIP peptides (Cavia porcellus, UniProt P04566)
T2 sequence (P04566 whole entry): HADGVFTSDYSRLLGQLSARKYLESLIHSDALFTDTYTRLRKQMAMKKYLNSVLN

Compound	Ki (VIP peptides [1])	Ki (VIP peptides [2])
CC[C@@H](C)[C@@H](NC(=O)[C@H](CO)NC(=O)[C@H](CC(N)=O)NC(=O)[C@H](CC(C)C)NC(=O)[C@H](Cc1ccc(O)cc1)NC(=O)[C@H](CCCCN)NC(=O)[C@H](CCCCN)NC(=O)[C@@H](NC(=O)[C@H](C)NC(=O)[C@H](CCSC)NC(=O)[C@H](CCC(N)=O)NC(=O)[C@H](CCCCN)NC(=O)[C@H](CCCN=C(N)N)NC(=O)[C@H](CC(C)C)NC(=O)[C@H](CCCN=C(N)N)NC(=O)[C@@H](NC(=O)[C@H](Cc1ccc(O)cc1)NC(=O)[C@H](CC(N)=O)NC(=O)[C@H](CC(=O)O)NC(=O)[C@@H](NC(=O)[C@H](Cc1ccccc1)NC(=O)[C@@H](NC(=O)[C@H](C)NC(=O)[C@H](CC(=O)O)NC(=O)[C@H](CO)NC(=O)[C@@H](N)Cc1cnc[nH]1)C(C)C)[C@@H](C)O)[C@@H](C)O)C(C)C)C(=O)N[C@@H](CC(C)C)C(=O)N[C@@H](CC(N)=O)C(N)=O [VIP [D-Ile26]]	38.2 nM and 48.9 nM and 33.2 nM	72.4 nM
CC[C@H](C)[C@H](NC(=O)[C@H](CO)NC(=O)[C@H](CC(N)=O)NC(=O)[C@H](CC(C)C)NC(=O)[C@H](Cc1ccc(O)cc1)NC(=O)[C@H](CCCCN)NC(=O)[C@H](CCCCN)NC(=O)[C@@H](NC(=O)[C@H](C)NC(=O)[C@H](CCSC)NC(=O)[C@H](CCC(N)=O)NC(=O)[C@H](CCCCN)NC(=O)[C@H](CCCN=C(N)N)NC(=O)[C@@H](CC(C)C)NC(=O)[C@H](CCCN=C(N)N)NC(=O)[C@@H](NC(=O)[C@H](Cc1ccc(O)cc1)NC(=O)[C@H](CC(N)=O)NC(=O)[C@H](CC(=O)O)NC(=O)[C@@H](NC(=O)[C@H](Cc1ccccc1)NC(=O)[C@@H](NC(=O)[C@H](C)NC(=O)[C@H](CC(=O)O)NC(=O)[C@H](CO)NC(=O)[C@@H](N)Cc1cnc[nH]1)C(C)C)[C@@H](C)O)[C@@H](C)O)C(C)C)C(=O)N[C@@H](CC(C)C)C(=O)N[C@@H](CC(N)=O)C(N)=O [VIP [D-Leu13]]	13.5 nM and 23.4 nM and 16.9 nM	51.2 nM
CC[C@H](C)[C@H](NC(=O)[C@H](CO)NC(=O)[C@H](CC(N)=O)NC(=O)[C@@H](CC(C)C)NC(=O)[C@H](Cc1ccc(O)cc1)NC(=O)[C@H](CCCCN)NC(=O)[C@H](CCCCN)NC(=O)[C@@H](NC(=O)[C@H](C)NC(=O)[C@H](CCSC)NC(=O)[C@H](CCC(N)=O)NC(=O)[C@H](CCCCN)NC(=O)[C@H](CCCN=C(N)N)NC(=O)[C@H](CC(C)C)NC(=O)[C@H](CCCN=C(N)N)NC(=O)[C@@H](NC(=O)[C@H](Cc1ccc(O)cc1)NC(=O)[C@H](CC(N)=O)NC(=O)[C@H](CC(=O)O)NC(=O)[C@@H](NC(=O)[C@H](Cc1ccccc1)NC(=O)[C@@H](NC(=O)[C@H](C)NC(=O)[C@H](CC(=O)O)NC(=O)[C@H](CO)NC(=O)[C@@H](N)Cc1cnc[nH]1)C(C)C)[C@@H](C)O)[C@@H](C)O)C(C)C)C(=O)N[C@@H](CC(C)C)C(=O)N[C@@H](CC(N)=O)C(N)=O [VIP [D-Leu23]]	3.1 nM and 19.5 nM and 18.6 nM	41.6 nM
CC[C@H](C)[C@H](NC(=O)[C@H](CO)NC(=O)[C@H](CC(N)=O)NC(=O)[C@H](CC(C)C)NC(=O)[C@H](Cc1ccc(O)cc1)NC(=O)[C@H](CCCCN)NC(=O)[C@H](CCCCN)NC(=O)[C@@H](NC(=O)[C@H](C)NC(=O)[C@H](CCSC)NC(=O)[C@H](CCC(N)=O)NC(=O)[C@@H](CCCCN)NC(=O)[C@H](CCCN=C(N)N)NC(=O)[C@H](CC(C)C)NC(=O)[C@H](CCCN=C(N)N)NC(=O)[C@@H](NC(=O)[C@H](Cc1ccc(O)cc1)NC(=O)[C@H](CC(N)=O)NC(=O)[C@H](CC(=O)O)NC(=O)[C@@H](NC(=O)[C@H](Cc1ccccc1)NC(=O)[C@@H](NC(=O)[C@H](C)NC(=O)[C@H](CC(=O)O)NC(=O)[C@H](CO)NC(=O)[C@@H](N)Cc1cnc[nH]1)C(C)C)[C@@H](C)O)[C@@H](C)O)C(C)C)C(=O)N[C@@H](CC(C)C)C(=O)N[C@@H](CC(N)=O)C(N)=O [VIP [D-Lys15]]	2 nM and 13.8 nM and 10.9 nM	19.9 nM
CC[C@H](C)[C@H](NC(=O)[C@H](CO)NC(=O)[C@H](CC(N)=O)NC(=O)[C@H](CC(C)C)NC(=O)[C@H](Cc1ccc(O)cc1)NC(=O)[C@H](CCCCN)NC(=O)[C@@H](CCCCN)NC(=O)[C@@H](NC(=O)[C@H](C)NC(=O)[C@H](CCSC)NC(=O)[C@H](CCC(N)=O)NC(=O)[C@H](CCCCN)NC(=O)[C@H](CCCN=C(N)N)NC(=O)[C@H](CC(C)C)NC(=O)[C@H](CCCN=C(N)N)NC(=O)[C@@H](NC(=O)[C@H](Cc1ccc(O)cc1)NC(=O)[C@H](CC(N)=O)NC(=O)[C@H](CC(=O)O)NC(=O)[C@@H](NC(=O)[C@H](Cc1ccccc1)NC(=O)[C@@H](NC(=O)[C@H](C)NC(=O)[C@H](CC(=O)O)NC(=O)[C@H](CO)NC(=O)[C@@H](N)Cc1cnc[nH]1)C(C)C)[C@@H](C)O)[C@@H](C)O)C(C)C)C(=O)N[C@@H](CC(C)C)C(=O)N[C@@H](CC(N)=O)C(N)=O [VIP [D-Lys20]]	4.2 nM and 22.4 nM and 16.9 nM	17.3 nM
CC[C@H](C)[C@H](NC(=O)[C@H](CO)NC(=O)[C@H](CC(N)=O)NC(=O)[C@H](CC(C)C)NC(=O)[C@H](Cc1ccc(O)cc1)NC(=O)[C@@H](CCCCN)NC(=O)[C@H](CCCCN)NC(=O)[C@@H](NC(=O)[C@H](C)NC(=O)[C@H](CCSC)NC(=O)[C@H](CCC(N)=O)NC(=O)[C@H](CCCCN)NC(=O)[C@H](CCCN=C(N)N)NC(=O)[C@H](CC(C)C)NC(=O)[C@H](CCCN=C(N)N)NC(=O)[C@@H](NC(=O)[C@H](Cc1ccc(O)cc1)NC(=O)[C@H](CC(N)=O)NC(=O)[C@H](CC(=O)O)NC(=O)[C@@H](NC(=O)[C@H](Cc1ccccc1)NC(=O)[C@@H](NC(=O)[C@H](C)NC(=O)[C@H](CC(=O)O)NC(=O)[C@H](CO)NC(=O)[C@@H](N)Cc1cnc[nH]1)C(C)C)[C@@H](C)O)[C@@H](C)O)C(C)C)C(=O)N[C@@H](CC(C)C)C(=O)N[C@@H](CC(N)=O)C(N)=O [VIP [D-Lys21]]	93.3 nM and 118 nM and 105 nM	100 nM
CC[C@H](C)[C@H](NC(=O)[C@H](CO)NC(=O)[C@H](CC(N)=O)NC(=O)[C@H](CC(C)C)NC(=O)[C@H](Cc1ccc(O)cc1)NC(=O)[C@H](CCCCN)NC(=O)[C@H](CCCCN)NC(=O)[C@@H](NC(=O)[C@H](C)NC(=O)[C@H](CCSC)NC(=O)[C@H](CCC(N)=O)NC(=O)[C@H](CCCCN)NC(=O)[C@H](CCCN=C(N)N)NC(=O)[C@H](CC(C)C)NC(=O)[C@H](CCCN=C(N)N)NC(=O)[C@H](NC(=O)[C@H](Cc1ccc(O)cc1)NC(=O)[C@H](CC(N)=O)NC(=O)[C@H](CC(=O)O)NC(=O)[C@@H](NC(=O)[C@H](Cc1ccccc1)NC(=O)[C@@H](NC(=O)[C@H](C)NC(=O)[C@H](CC(=O)O)NC(=O)[C@H](CO)NC(=O)[C@@H](N)Cc1cnc[nH]1)C(C)C)[C@@H](C)O)[C@H](C)O)C(C)C)C(=O)N[C@@H](CC(C)C)C(=O)N[C@@H](CC(N)=O)C(N)=O [VIP [D-Thr11]]	54.9 nM and 91.2 nM and 110 nM	54.9 nM
CC[C@H](C)[C@H](NC(=O)[C@H](CO)NC(=O)[C@H](CC(N)=O)NC(=O)[C@H](CC(C)C)NC(=O)[C@H](Cc1ccc(O)cc1)NC(=O)[C@H](CCCCN)NC(=O)[C@H](CCCCN)NC(=O)[C@@H](NC(=O)[C@H](C)NC(=O)[C@H](CCSC)NC(=O)[C@H](CCC(N)=O)NC(=O)[C@H](CCCCN)NC(=O)[C@H](CCCN=C(N)N)NC(=O)[C@H](CC(C)C)NC(=O)[C@H](CCCN=C(N)N)NC(=O)[C@@H](NC(=O)[C@@H](Cc1ccc(O)cc1)NC(=O)[C@H](CC(N)=O)NC(=O)[C@H](CC(=O)O)NC(=O)[C@@H](NC(=O)[C@H](Cc1ccccc1)NC(=O)[C@@H](NC(=O)[C@H](C)NC(=O)[C@H](CC(=O)O)NC(=O)[C@H](CO)NC(=O)[C@@H](N)Cc1cnc[nH]1)C(C)C)[C@@H](C)O)[C@@H](C)O)C(C)C)C(=O)N[C@@H](CC(C)C)C(=O)N[C@@H](CC(N)=O)C(N)=O [VIP [D-Tyr10]]	3.7 nM and 32.3 nM and 24.5 nM	23.4 nM
